Like-named read-outs stand apart in the source and are kept apart here.
Assays:
A2780 = assay: Inhibition of cell growth, A2780 wild type ovarian carcinoma cell line
A2780/cp70 = assay: Inhibition of cell growth, cisplatin resistant A2780/cp70 cell line; format: cell-based, human; conditions: for RF A2780/cp70 (IC50 in resistant cell line/IC50 in parent cell line): A2780/cp70 vs A2780
2780AD = assay: Inhibition of cell growth, adriamycin (doxorubicin) resistant 2780AD cell line; format: cell-based, human; conditions: for IC50: read-out: Inhibition of cell growth 2780AD nM (IC50); for RF 2780AD (IC50 in resistant cell line/IC50 in parent cell line): 2780AD vs A2780
[1] = test system: cisplatin resistant variant (A2780/cp70) xenograft; assay: Tumour doubling time, cisplatin resistant variant xenograft A2780/cp70 in mice; format: in vivo; conditions: 20 mg/kg i.p.
Text: (§1) Compound HAQ71, with the lowest RF (0.2) of the panel of compounds tested against the cisplatin resistant cells and its chloropropyl-substituted analogue, was selected for in vivo investigation in mice using tumour A2780 and A2780/cp70 cells grown as xenografts in mice. Significant anticancer activity in vivo of HAQ71 and CAQ75 was shown; both compounds exerting similar tumour growth delay in human xenografted wild-type and acquired cisplatin resistant tumours (A2780/cp70). The latter is very refractory to cisplatin and other covalent binding agents and has been characterised with elevated levels of glutathione, alterations in drug uptake/efflux and DNA repair mechanisms including mismatch repair deficiency.

[2] = test system: human ovarian tumour xenograft (A2780); assay: Tumour doubling time, human ovarian tumour xenograft A2780 in mice; format: in vivo; conditions: 20 mg/kg i.p.
Text: as §1

[3] = Homo sapiens, A2780, read-out: Inhibition of cell growth A2780 nM (IC50)
[4] = Homo sapiens, A2780/CP70, read-out: Inhibition of cell growth A2780/cp70 nM (IC50)
[5] = read-out: Inhibition of cell growth (IC50, nM) A2780, A2780, Table 1
[6] = A2780/cp70 cisplatin resistant, read-out: Inhibition of cell growth A2780/cp70 nM (IC50)
[7] = read-out: Growth Inhibition (IC50) A2780, A2780, Table 4

## O=C1c2c(O)ccc(O)c2C(=O)c2c(NCCN3CCCCC3CCl)ccc(NCCN3CCCCC3CCl)c21 (stereo not drawn) [CAQ190M, 1,4-Bis-{[2-(2-chloromethylpiperidin-1-yl)ethyl]amino}-5,8-dihydroxyanthracene-9,10-dione]
A2780; [3]
  IC50: 178 nM
A2780/cp70; [4]
  IC50: > 1000 nM
2780AD; Homo sapiens, 2780AD
  IC50: > 1000 nM

## CN(C)CCNc1ccc(NCCN2CCC(O)CC2)c2c1C(=O)c1c(O)ccc(O)c1C2=O [HAQ111, 1-{[(2-Dimethylamino)ethyl]amino}-4-{[2-(4-hydroxypiperidin-1-yl)ethyl]amino}-5,8-dihydroxy-anthracene-9,10-dione]
A2780; [5]
  IC50: 6.1 nM

## O=C1c2ccccc2C(=O)c2c(NCCN3CCCC3CO)cccc21 (stereo not drawn) [HAQ163, 1-{[2-(2-Hydroxymethylpyrrolidin-1-yl)ethyl]amino}-anthracene-9,10-dione]
A2780; read-out: Inhibition of cell growth A2780 nM (IC50)
  IC50: > 1000 nM
other
  melting point: 113 to 115 °C
A2780/cp70; Homo sapiens, A2780/cp70 cisplatin resistant, read-out: Inhibition of cell growth A2780/cp70 nM (IC50)
  IC50: > 1000 nM
2780AD; Homo sapiens, 2780AD adriamycin resistant
  IC50: > 1000 nM

## CN(C)CCNc1ccc(NCCN2CCCCC2)c2c1C(=O)c1c(O)ccc(O)c1C2=O [HAQ148, 1-{[(2-Dimethylamino)ethyl]amino}-4-{[2-(piperidin-1-yl)ethyl]amino}-5,8-dihydroxyanthracene-9,10-dione, reference compound]
A2780; [5]
  IC50: > 1000 nM
A2780; read-out: Inhibition of cell growth A2780 nM (IC50), A2780 wild type, Table 2
  IC50: > 1000 nM
A2780/cp70; [6]
  IC50: > 1000 nM
2780AD; 2780AD adriamycin resistant
  IC50: > 1000 nM

## CN(C)CCNc1ccc(NCCN2CCCC(O)C2)c2c1C(=O)c1c(O)ccc(O)c1C2=O (stereo not drawn) [HAQ73, 1-[(2-Dimethylamino)ethylamino]-4-[2-(3-hydroxypiperidon-1-yl)ethylamino]-5,8-dihydroxy-anthracene-9,10-dione]
A2780; [5]
  IC50: 10.8 nM

## O=C1c2c(O)ccc(O)c2C(=O)c2c(NCCN3CCCC(CCl)C3)ccc(NCCN3CCCC(CCl)C3)c21 (stereo not drawn) [CAQ74, 1,4-Bis-{[2-(3-chloromethylpiperidin-1-yl)ethyl]amino}-5,8-dihydroxyanthracene-9,10-dione]
A2780; [3]
  IC50: > 1000 nM
A2780/cp70; [4]
  IC50: > 1000 nM
2780AD; Homo sapiens, 2780AD
  IC50: > 1000 nM

## CN(C)CCNc1ccc(NCCN2CCC(Cl)CC2)c2c1C(=O)c1c(O)ccc(O)c1C2=O [CAQ172, 1-{[2-(4-Chloropiperidin-1-yl)ethyl]amino}-4-{[(2-dimethylamino)ethyl]amino}-5,8-dihydroxyanthracene-9,10-dione]
A2780/cp70; [6]
  IC50: 535 nM
A2780/cp70
  RF A2780/cp70 (IC50 in resistant cell line/IC50 in parent cell line): 0.9
2780AD; 2780AD adriamycin resistant
  IC50: 426 nM
2780AD
  RF 2780AD (IC50 in resistant cell line/IC50 in parent cell line): 0.7

## O=C1c2c(O)ccc(O)c2C(=O)c2c(NCCN3CCCCC3CO)ccc(NCCN3CCCCC3CO)c21 (stereo not drawn) [HAQ105, 1,4-Bis-{[2-(2-hydroxymethylpiperidine-1-yl)ethyl]amino}-5,8-dihydroxy-anthracene-9,10-dione]
other
  melting point: 208 to 210 °C

## O=C1c2ccccc2C(=O)c2c(NCCN3CCCC(CO)C3)ccc(NCCN3CCCC(CO)C3)c21 (stereo not drawn) [HAQ38, 1,4-Bis-{[2-(3-hydroxymethylpiperidine-1-yl)ethyl]amino}-anthracene-9,10-dione]
other
  melting point: 112 to 114 °C

## O=C1c2ccccc2C(=O)c2c(NCCN3CCCC3CCl)cccc21 (stereo not drawn) [CAQ191M, 1-{[2-(2-chloromethylpyrrolidin-1-yl)ethyl]amino}-anthracene-9,10-dione]
A2780; [3]
  IC50: > 1000 nM
other
  melting point: 250 to 253 °C
A2780/cp70; [4]
  IC50: > 1000 nM
2780AD; Homo sapiens, 2780AD
  IC50: > 1000 nM

## CN(C)CCNc1ccc(NCCN2CCCCC2CCl)c2c1C(=O)c1c(O)ccc(O)c1C2=O (stereo not drawn) [CAQ183M, 1-{[2-(2-Chloromethylpiperidin-1-yl)ethyl]-amino}-4-{[(2-dimethylamino)ethyl]amino}-5,8-dihydroxyanthracene-9,10-dione]
A2780/cp70; [6]
  IC50: 69 nM
A2780/cp70
  RF A2780/cp70 (IC50 in resistant cell line/IC50 in parent cell line): 1.7
2780AD; 2780AD adriamycin resistant
  IC50: 91 nM
2780AD
  RF 2780AD (IC50 in resistant cell line/IC50 in parent cell line): 2.3

## O=C1c2c(O)ccc(O)c2C(=O)c2c(NCCN3CCCCC3)ccc(NCCN3CCCCC3)c21 [HAQ145, 1,4-Bis-{[2-(piperidin-1-yl)ethyl]amino}-5,8-dihydroxy-anthracene-9,10-dione]
other
  melting point: 219 to 221 °C

## O=C1c2c(O)ccc(O)c2C(=O)c2c(NCCN3CCCC3CO)ccc(NCCN3CCCC3CO)c21 (stereo not drawn) [HAQ125, 1,4-Bis-{[2-(2-hydroxymethylpyrrolidin-1-yl)ethyl]amino}-5,8-dihydroxy-anthracene-9,10-dione]
other
  melting point: 202 to 204 °C

## O=C1c2c(O)ccc(O)c2C(=O)c2c(NCCN3CCC(O)C3)ccc(NCCN3CCC(O)C3)c21 (stereo not drawn) [HAQ115, 1,4-Bis-{[2-(3-hydroxypyrrolidin-1-yl)ethyl]amino}-5,8-dihydroxy-anthracene-9,10-dione]
other
  melting point: 197 to 199 °C

## O=C1c2c(O)ccc(O)c2C(=O)c2c(NCCN3CCC(O)CC3)ccc(NCCN3CCC(O)CC3)c21 [HAQ116, 1,4-Bis-{[2-(4-hydroxypiperidin-1-yl)ethyl]amino}-5,8-dihydroxy-anthracene-9,10-dione]
other
  melting point: 241 to 244 °C

## CN(C)CCNc1ccc(NCCN2CCC(Cl)C2)c2c1C(=O)c1c(O)ccc(O)c1C2=O (stereo not drawn) [CAQ188M, 1-{[2-(3-Chloropyrrolidin-1-yl)ethyl]amino}-4-{[(2-dimethylamino)ethyl]amino}-5,8-dihydroxyanthracene-9,10-dione]
A2780/cp70; [6]
  IC50: 96 nM
A2780/cp70
  RF A2780/cp70 (IC50 in resistant cell line/IC50 in parent cell line): 1.4
2780AD; 2780AD adriamycin resistant
  IC50: 342 nM
2780AD
  RF 2780AD (IC50 in resistant cell line/IC50 in parent cell line): 5.0

## CN(C)CCNc1ccc(NCCN2CCCC(Cl)C2)c2c1C(=O)c1c(O)ccc(O)c1C2=O (stereo not drawn) [CAQ166M, 1-{[2-(3-Chloropiperidin-1-yl)ethyl]amino}-4-{[(2-dimethylamino)ethyl]amino}-5,8-dihydroxyanthracene-9,10-dione]
A2780/cp70; [6]
  IC50: 63 nM
A2780/cp70
  RF A2780/cp70 (IC50 in resistant cell line/IC50 in parent cell line): 7
2780AD; 2780AD adriamycin resistant
  IC50: 75 nM
2780AD
  RF 2780AD (IC50 in resistant cell line/IC50 in parent cell line): 8.3

## O=C1c2c(O)ccc(O)c2C(=O)c2c(NCCN3CCCC(CO)C3)ccc(NCCN3CCCC(CO)C3)c21 (stereo not drawn) [HAQ70, 1,4-Bis-{[2-(3-hydroxymethylpiperidine-1-yl)ethyl]amino}-5,8-dihydroxyanthracene-9,10-dione]
other
  melting point: 180 to 183 °C

## C[N+](C)([O-])CCNc1ccc(NCC[N+]2([O-])CCCC2CO)c2c1C(=O)c1c(O)ccc(O)c1C2=O (stereo not drawn) [HAQ132N, 1-{[2-(2-Hydroxymethylpyrrolidin-1-yl-N-oxide)ethyl]amino}-4-{[(2-dimethylamino-N-oxide)ethyl]amino}-5,8-dihydroxy-anthracene-9,10-dione]
A2780; [7]
  IC50: > 100000 nM
A2780; read-out: IC50 of di-N-oxides (order of cytotoxicity), text b286
  IC50: > 100000 nM
A2780; text b286
  cytotoxicity ratio (CR=IC50 of alkylaminoanthraquinone-di-N-oxide/IC50 alkylaminoanthraquinone): 1,450

## CN(C)CCNc1ccc(NCCN2CCCC(CO)C2)c2c1C(=O)c1c(O)ccc(O)c1C2=O (stereo not drawn) [HAQ71, 1-[(2-Dimethylamino)ethylamino]-4-[2-(3-hydroxymethyl-piperidin-1-yl)ethylamino]-5,8-dihydroxy-anthracene-9,10-dione]
A2780; [5]
  IC50: 8.4 nM
[1]
  doubling time (days) of tumour xenograft: 4.33 ± 0.16 days
  tumour growth delay (%): 172%
[2]
  doubling time (days) of tumour xenograft: 5.23 ± 0.39 days
  tumour doubling time, percent: 177%
A2780/cp70; text b280, b283
  RF against the cisplatin resistant cells: 0.2

## CN(C)CCNc1ccc(NCCN2CCCC2CCl)c2c1C(=O)c1c(O)ccc(O)c1C2=O (stereo not drawn) [CAQ176M, 1-{[2-(2-Chloromethylpyrrolidin-1-yl)ethyl]-amino}-4-{[(2-Dimethylamino)ethyl]amino}-5,8-dihydroxyanthracene-9,10-dione]
A2780/cp70; [6]
  IC50: 79 nM
A2780/cp70
  RF A2780/cp70 (IC50 in resistant cell line/IC50 in parent cell line): 2.7
2780AD; 2780AD adriamycin resistant
  IC50: 292 nM
2780AD
  RF 2780AD (IC50 in resistant cell line/IC50 in parent cell line): 10.1

## CN(C)CCNc1ccc(NCCN2CCCC2CO)c2c1C(=O)c1c(O)ccc(O)c1C2=O (stereo not drawn) [HAQ110, 1-{[(2-Dimethylamino)ethyl]amino}-4-{[2-(2-hydroxymethylpyrrolidin-1-yl)ethyl]-amino}-5,8-dihydroxy-anthracene-9,10-dione]
A2780; [7]
  IC50: 69 nM

## CN(C)CCNc1ccc(NCCN2C(CCl)CCCC2CCl)c2c1C(=O)c1c(O)ccc(O)c1C2=O (stereo not drawn) [CAQ187M, 1-{[2-(2,6-Dichloromethylpiperidin-1-yl)ethyl]-amino}-4-{[(2-dimethylamino)ethyl]amino}-5,8-dihydroxyanthracene-9,10-dione]
A2780/cp70; [6]
  IC50: 357 nM
A2780/cp70
  RF A2780/cp70 (IC50 in resistant cell line/IC50 in parent cell line): 14.9
2780AD; 2780AD adriamycin resistant
  IC50: 106 nM
2780AD
  RF 2780AD (IC50 in resistant cell line/IC50 in parent cell line): 4.4

## O=C1c2c(O)ccc(O)c2C(=O)c2c(NCCN3CCCC3CCl)ccc(NCCN3CCCC3CCl)c21 (stereo not drawn) [CAQ177M, 1,4-Bis-{[2-(2-chloromethylpyrrolidin-1-yl)ethyl]amino}-5,8-dihydroxyanthracene-9,10-dione]
A2780; [3]
  IC50: 428 nM
A2780/cp70
  RF A2780/cp70 (IC50 in resistant cell line/IC50 in parent cell line): 1
A2780/cp70; [4]
  IC50: 442 nM
2780AD
  RF 2780AD (IC50 in resistant cell line/IC50 in parent cell line): 1.8
2780AD; Homo sapiens, 2780AD
  IC50: 782 nM

— patent US7557215B2, “Anthraquinone compounds as anti cancer compounds” (Somanta Limited, priority 2003, dated 2009)
